These results are taken from patent US9896441B2 (Lycera Corporation, priority 2014, dated 2018).

The target in one test is T1, Gal4-RORγ-LBD (Homo sapiens, UniProt P51449).
T1 construct: expressed in transfected cells
T1 sequence (P51449 269-508 limits assumed): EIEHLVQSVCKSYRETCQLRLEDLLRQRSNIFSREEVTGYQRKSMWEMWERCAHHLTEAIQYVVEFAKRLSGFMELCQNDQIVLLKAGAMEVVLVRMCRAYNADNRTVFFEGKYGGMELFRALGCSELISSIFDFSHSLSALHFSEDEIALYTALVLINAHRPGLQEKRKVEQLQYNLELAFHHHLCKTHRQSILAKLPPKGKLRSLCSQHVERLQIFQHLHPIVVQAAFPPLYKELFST
Nature of the test: Gal4-RORγ Luciferase Reporter Assay in HEK-293T Cells. In kind it is cell-based. As to conditions: HEK-293 cells; for Gal4-RORγ Assay Max Response: maximum response. The method in brief: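 Max Response was taken as the upper plateau of a 4-parameter logistic fit of luciferase signal, normalized to 100 for wells without ursolic acid or compound. Transiently Gal4-RORγ-LBD/Gal4-luc transfected HEK-293 cells carrying […] ursolic acid were incubated with test compounds (0.2% DMSO) overnight at 37 °C and read with One-Glo.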

In a further test the target is T2, RORγ-LBD (Homo sapiens, UniProt P51449).
T2 construct: made in house; host or cells: SF9 cells (baculovirus); used as diluted lysate
T2 sequence (P51449 269-508 limits assumed): T1 sequence (P51449 269-508 limits assumed)
Nature of the test: RORγ-Ligand Binding Domain (LBD) TR-FRET Assay.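 On TR-FRET Assay Max Response: 665/615 nm signal ratio set to 100 without ursolic acid or test compound.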 It counts as biochemical. To be noted: for TR-FRET Assay Max Response: maximum response. In short, it runs like this: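 TR-FRET read-out using a biotin-tagged SRC1 coactivator LXXLL peptide (200 nM final), with the antagonist ursolic acid present at 2 μM final. Receptor is His-tagged LBD expressed in SF9 cells, ~3 nM final in pH 7.0 Tris/KCl/EDTA/DTT/BSA buffer; compounds in 1% DMSO final.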

The mark [1] stands for this setting: luciferase reporter, in presence of ursolic acid.
[2] abbreviates: luciferase reporter, with ursolic acid.

As usually defined, the EC50 is the concentration giving half of the maximal effect. As for `C/C(=C\c1ccc2c(c1)N(S(=O)(=O)c1cccc(C(F)(F)F)c1)C[C@H](CCCN1CCCC1)O2)c1c(F)cccc1Cl` [Example 117, (S,E)-6-(2-(2-Chloro-6-fluorophenyl)prop-1-en-1-yl)-2-(3-(pyrrolidin-1-yl)propyl)-4-((3-(trifluoromethyl)phenyl)sulfonyl)-3,4-dihydro-2H-benzo[b][1,4]oxazine], at Gal4-RORγ-LBD (setting [1]), the EC50 was 500 to 5000 nM and the “Gal4-RORγ Assay Max Response” value is “** (a value in the range of greater than 90 to 150)”. In addition, on RORγ-LBD (RORγ-LBD TR-FRET assay), the EC50 was below 500 nM and the “TR-FRET Assay Max Response” value was “*** (a value in the range of greater than 150 to 200)”.
Regarding `CC(C)n1cnc(S(=O)(=O)N2C[C@H](CCC(=O)O)Oc3ccc(/C=C/c4c(F)cccc4Cl)cc32)c1` [Example 89DY, (S,E)-3-(6-(2-chloro-6-fluorostyryl)-4-((1-isopropyl-1H-imidazol-4-yl)sulfonyl)-3,4-dihydro-2H-benzo[b][1,4]-oxazin-2-yl)propanoic acid], the values for the EC50 at Gal4-RORγ-LBD (setting [2]) and on RORγ-LBD (RORγ-LBD TR-FRET) were 500 to 5000 nM and below 500 nM, respectively.
Taken in the same sequence, the figures for `O=C(O)CC[C@H]1CN(S(=O)(=O)c2cccc(C(F)(F)F)c2)c2cc(/C=C/c3ncccc3C(F)(F)F)ccc2O1` [Example 89BI, (S,E)-3-(4-((3-(trifluoromethyl)phenyl)sulfonyl)-6-(2-(3-(trifluoromethyl)pyridin-2-yl)vinyl)-3,4-dihydro-2H-benzo[b][1,4]oxazin-2-yl)propanoic acid] were below 500 nM and below 500 nM.
With `COC(=O)CC[C@H]1CN(S(=O)(=O)c2cccc(C(F)F)c2)c2cc(/C=C/c3c(Cl)cccc3C(F)(F)F)ccc2O1` [Example 81, Methyl (S,E)-3-(6-(2-chloro-6-(trifluoromethyl)styryl)-4-((3-(difluoromethyl)phenyl)sulfonyl)-3,4-dihydro-2H-benzo[b][1,4]oxazin-2-yl)propanoate], the EC50 at Gal4-RORγ-LBD (setting [2]) and on RORγ-LBD (RORγ-LBD TR-FRET) was below 500 nM in each case.
Consider `C/C(=C\c1ccc2c(c1)N(S(=O)(=O)c1cccc(C(F)(F)F)c1)C[C@H](CCC(=O)N1CC(C(=O)O)C1)O2)c1c(F)cccc1Cl` [Example 129D, (S,E)-1-(3-(6-(2-(2-chloro-6-fluorophenyl)-prop-1-en-1-yl)-4-((3-(trifluoromethyl)phenyl)sulfonyl)-3,4-dihydro-2H-benzo[b][1,4]oxazin-2-yl)propanoyl)azetidine-3-carboxylic acid], for which, at Gal4-RORγ-LBD (setting [1]), the EC50 is below 500 nM and the “Gal4-RORγ Assay Max Response” value is given as “** (a value in the range of greater than 90 to 150)”. At RORγ-LBD (RORγ-LBD TR-FRET assay), the EC50 is below 500 nM and the “TR-FRET Assay Max Response” value is “**** (a value greater than 200)”.
Regarding `O=C(O)CC[C@H]1CN(S(=O)(=O)c2cccc(C(F)(F)F)c2)c2cc(/C=C3\CCOc4ccccc43)ccc2O1` [Example 38B, (S,E)-3-(6-(chroman-4-ylidenemethyl)-4-((3-(trifluoromethyl)-phenyl)sulfonyl)-3,4-dihydro-2H-benzo[b][1,4]oxazin-2-yl)propanoic acid], the EC50 is 500 to 5000 nM on Gal4-RORγ-LBD (setting [2]) and below 500 nM at RORγ-LBD (RORγ-LBD TR-FRET).
Taken in the same sequence, the figures for `C/C(=C\c1ccc2c(c1)N(S(=O)(=O)c1cccc(C(F)(F)F)c1)C[C@H](CCC(=O)O)O2)c1ccccc1C(F)(F)F` [Example 86AG, (S,E)-3-(6-(2-(2-(trifluoromethyl)-phenyl)prop-1-en-1-yl)-4-((3-(trifluoromethyl)phenyl)sulfonyl)-3,4-dihydro-2H-benzo[b][1,4]-oxazin-2-yl)propanoic acid] were below 500 nM and below 500 nM.
Turning to `C[C@@H]1[C@@H](O)Cc2ccc(/C=C/c3c(F)cccc3Cl)cc2N1S(=O)(=O)c1cccc(C(F)(F)F)c1` (racemic) [Example 176, rac-(2R,3S)-7-((E)-2-Chloro-6-fluorostyryl)-2-methyl-1-((3-(trifluoromethyl)phenyl)sulfonyl)-1,2,3,4-tetrahydroquinolin-3-ol], at Gal4-RORγ-LBD (setting [1]), the EC50 lay in the range of 500 to 5000 nM and the “Gal4-RORγ Assay Max Response” value is listed as “** (a value in the range of greater than 90 to 150)”. Besides, at RORγ-LBD (RORγ-LBD TR-FRET assay), the EC50 is below 500 nM and the “TR-FRET Assay Max Response” value is “*** (a value in the range of greater than 150 to 200)”.
As to `O=C(O)CC[C@H]1CN(S(=O)(=O)c2cccc(C(F)(F)F)c2)c2cc(/C=C3/CCCOC3)ccc2O1` [Example 95J, (S,Z)-3-(6-((dihydro-2H-pyran-3(4H)-ylidene)methyl)-4-((3-(trifluoromethyl)phenyl)sulfonyl)-3,4-dihydro-2H-benzo[b][1,4]oxazin-2-yl)propanoic acid], the results for the EC50 on Gal4-RORγ-LBD (setting [2]) and on RORγ-LBD (RORγ-LBD TR-FRET) were 500 to 5000 nM and below 500 nM, respectively.
Taken in the same sequence, the figures for `CCOc1nn(CC)cc1S(=O)(=O)N1C[C@H](CCC(=O)OC)Oc2ccc(/C=C/c3ccccc3C)cc21` [Example 89AT, (S,E)-methyl 3-(4-((3-ethoxy-1-ethyl-1H-pyrazol-4-yl)sulfonyl)-6-(2-methylstyryl)-3,4-dihydro-2H-benzo[b][1,4]oxazin-2-yl)propanoate] were 500 to 5000 nM and below 500 nM.
Take `O=C(O)CC[C@H]1CN(S(=O)(=O)c2cccc(C(F)(F)F)c2)c2cc(/C=C/c3ncccc3F)ccc2O1` [Example 89CE, (S,E)-3-(6-(2-(3-fluoropyridin-2-yl)vinyl)-4-((3-(trifluoromethyl)phenyl)sulfonyl)-3,4-dihydro-2H-benzo[b][1,4]oxazin-2-yl)propanoic acid]: the EC50 at Gal4-RORγ-LBD (setting [2]) is 500 to 5000 nM; on RORγ-LBD (RORγ-LBD TR-FRET), below 500 nM.
The corresponding values for `CCc1ccccc1/C=C/c1ccc2c(c1)N(S(=O)(=O)c1cccc(OC(F)F)c1)C[C@H](CCC(=O)OC)O2` [Example 89AX, (S,E)-methyl 3-(4-((3-(difluoromethoxy)phenyl)sulfonyl)-6-(2-ethylstyryl)-3,4-dihydro-2H-benzo[b][1,4]oxazin-2-yl)propanoate] are 500 to 5000 nM and below 500 nM.
Regarding `C/C(=C\c1ccc2c(c1)N(S(=O)(=O)c1cccc(C(F)(F)F)c1C)C[C@H](CCC(=O)O)O2)c1c(F)cccc1Cl` [Example 86AM, (S,E)-3-(6-(2-(2-chloro-6-fluorophenyl)prop-1-en-1-yl)-4-((2-methyl-3-(trifluoromethyl)-phenyl)sulfonyl)-3,4-dihydro-2H-benzo[i,4]oxazin-2-yl)propanoic acid], the results for the EC50 at Gal4-RORγ-LBD (setting [2]) and on RORγ-LBD (RORγ-LBD TR-FRET) were 500 to 5000 nM and below 500 nM, respectively.
As to `C[C@H]1CN(S(=O)(=O)c2cccc(C(F)(F)F)c2)c2cc(COc3c(F)cccc3Cl)ccc2O1`, the EC50 at Gal4-RORγ-LBD (ursolic acid present, luciferase readout) is 5000 to 10000 nM; at RORγ-LBD (with 2 μM ursolic acid (RORγ antagonist), highest test concentration 10 μM) it was below 500 nM.
Take `COc1cc(S(=O)(=O)N2CCCc3ccc(OC4CCCc5ccccc54)cc32)ccc1F` (stereo not shown) [Example 25C, 1-((4-fluoro-3-methoxyphenyl)sulfonyl)-7-((1,2,3,4-tetrahydronaphthalen-1-yl)oxy)-1,2,3,4-tetrahydroquinoline]: the EC50 on Gal4-RORγ-LBD (setting [2]) and on RORγ-LBD (RORγ-LBD TR-FRET) was below 500 nM throughout.
Take `CCn1cc(S(=O)(=O)N2C[C@H](CCC(=O)O)Oc3ccc(/C=C(\C)c4c(F)cccc4Cl)cc32)c(OCCO)n1` [Example 80, (S,E)-3-(6-(2-(2-Chloro-6-fluorophenyl)prop-1-en-1-yl)-4-((1-ethyl-3-(2-hydroxyethoxy)-1H-pyrazol-4-yl)sulfonyl)-3,4-dihydro-2H-benzo[b][1,4]oxazin-2-yl)propanoic acid]: the EC50 was 500 to 5000 nM on Gal4-RORγ-LBD (setting [2]) and below 500 nM on RORγ-LBD (RORγ-LBD TR-FRET).
The corresponding values for `C[C@H](O)COc1ncc(C(F)(F)F)cc1S(=O)(=O)N1C[C@H](CCC(=O)O)Oc2ccc(/C=C/c3c(F)cccc3Cl)cc21` [Example 89FM, 3-((S)-6-((E)-2-chloro-6-fluorostyryl)-4-((2-((S)-2-hydroxypropoxy)-5-(trifluoromethyl)pyridin-3-yl)sulfonyl)-3,4-dihydro-2H-benzo[b][1,4]oxazin-2-yl)propanoic acid] are 500 to 5000 nM and below 500 nM.
`COc1cc(S(=O)(=O)N2c3cc(OCc4c(F)cccc4Cl)ccc3C=C(CN)[C@H]2C)ccc1F` [Example 139, (R)-(7-((2-Chloro-6-fluorobenzyl)oxy)-1-((4-fluoro-3-methoxyphenyl)sulfonyl)-2-methyl-1,2-dihydroquinolin-3-yl)methanamine]: the figures for the EC50 on Gal4-RORγ-LBD (setting [1]) and at RORγ-LBD (RORγ-LBD TR-FRET assay) were 500 to 5000 nM and below 500 nM, respectively.
Consider `CCn1cc(S(=O)(=O)N2C[C@H](CCC(C)(C)O)Oc3ccc(/C=C(\C)c4c(F)cccc4Cl)cc32)c(OCCO)n1` [Example 121C, (S,E)-4-(6-(2-(2-chloro-6-fluorophenyl)prop-1-en-1-yl)-4-((1-ethyl-3-(2-hydroxyethoxy)-1H-pyrazol-4-yl)sulfonyl)-3,4-dihydro-2H-benzo[b][1,4]oxazin-2-yl)-2-methylbutan-2-ol], for which, at Gal4-RORγ-LBD (setting [1]), the EC50 is below 500 nM and the “Gal4-RORγ Assay Max Response” value was “** (a value in the range of greater than 90 to 150)”. Besides, on RORγ-LBD (RORγ-LBD TR-FRET assay), the EC50 is below 500 nM and the “TR-FRET Assay Max Response” value is reported as “**** (a value greater than 200)”.
